Assay results taken from the NIST ThermoML archive (doi:10.1021/je1000796).

Experiment: mn = molality of the nth substance listed, in mol/kg
Settings: 101 kPa, Liquid; for viscosity: Capillary tube (Ostwald / Ubbelohde) method

COC(=O)[C@H](c1ccccc1Cl)N1CCc2sccc2C1.O=S(=O)(O)O [(S)-(+)-Clopidogrel hydrogen sulfate] + CCO
Settings | mass density [kg/m3] | viscosity [mPa·s]
278.15 K, m1 = 0.001 | 801 | 1.632
278.15 K, m1 = 0.003 | 801.6 | 1.638
278.15 K, m1 = 0.005 | 802.3 | 1.645
278.15 K, m1 = 0.007 | 802.9 | 1.665
278.15 K, m1 = 0.009 | 803.5 | 1.671
278.15 K, m1 = 0.011 | 803.9 | 1.674
278.15 K, m1 = 0.013 | 804.5 | 1.68
278.15 K, m1 = 0.015 | 805 | 1.687
283.15 K, m1 = 0.001 | 798 | 1.476
283.15 K, m1 = 0.003 | 798.4 | 1.484
283.15 K, m1 = 0.005 | 798.9 | 1.489
283.15 K, m1 = 0.007 | 799.3 | 1.502
283.15 K, m1 = 0.009 | 799.8 | 1.505
283.15 K, m1 = 0.011 | 800.1 | 1.508
283.15 K, m1 = 0.013 | 800.6 | 1.514
283.15 K, m1 = 0.015 | 800.9 | 1.523
288.15 K, m1 = 0.001 | 794.2 | 1.335
288.15 K, m1 = 0.003 | 794.5 | 1.343
288.15 K, m1 = 0.005 | 794.9 | 1.346
288.15 K, m1 = 0.007 | 795.4 | 1.359
288.15 K, m1 = 0.009 | 795.9 | 1.36
288.15 K, m1 = 0.011 | 796.2 | 1.361
288.15 K, m1 = 0.013 | 796.5 | 1.365
288.15 K, m1 = 0.015 | 796.8 | 1.373
293.15 K, m1 = 0.001 | 790.4 | 1.211
293.15 K, m1 = 0.003 | 790.8 | 1.214
293.15 K, m1 = 0.005 | 791 | 1.223
293.15 K, m1 = 0.007 | 791.4 | 1.235
293.15 K, m1 = 0.009 | 791.8 | 1.236
293.15 K, m1 = 0.011 | 792.2 | 1.238
293.15 K, m1 = 0.013 | 792.8 | 1.243
293.15 K, m1 = 0.015 | 793 | 1.25
298.15 K, m1 = 0.001 | 786.1 | 1.101
298.15 K, m1 = 0.003 | 786.6 | 1.103
298.15 K, m1 = 0.005 | 786.9 | 1.109
298.15 K, m1 = 0.007 | 787.2 | 1.12
298.15 K, m1 = 0.009 | 787.7 | 1.121
298.15 K, m1 = 0.011 | 788 | 1.123
298.15 K, m1 = 0.013 | 788.4 | 1.126
298.15 K, m1 = 0.015 | 788.7 | 1.131
303.15 K, m1 = 0.001 | 781.2 | 0.9985
303.15 K, m1 = 0.003 | 781.8 | 1.003
303.15 K, m1 = 0.005 | 782.1 | 1.006
303.15 K, m1 = 0.007 | 782.5 | 1.012
303.15 K, m1 = 0.009 | 782.9 | 1.015
303.15 K, m1 = 0.011 | 783.2 | 1.017
303.15 K, m1 = 0.013 | 783.4 | 1.019
303.15 K, m1 = 0.015 | 783.9 | 1.023
308.15 K, m1 = 0.001 | 778.2 | 0.9134
308.15 K, m1 = 0.003 | 778.5 | 0.9149
308.15 K, m1 = 0.005 | 778.7 | 0.9166
308.15 K, m1 = 0.007 | 778.9 | 0.9224
308.15 K, m1 = 0.009 | 779.1 | 0.9236
308.15 K, m1 = 0.011 | 779.4 | 0.9256
308.15 K, m1 = 0.013 | 779.8 | 0.928
308.15 K, m1 = 0.015 | 780.2 | 0.9307
313.15 K, m1 = 0.001 | 773.7 | 0.8328
313.15 K, m1 = 0.003 | 773.9 | 0.8348
313.15 K, m1 = 0.005 | 774.2 | 0.8359
313.15 K, m1 = 0.007 | 774.5 | 0.8409
313.15 K, m1 = 0.009 | 774.8 | 0.8441
313.15 K, m1 = 0.011 | 775.2 | 0.8458
313.15 K, m1 = 0.013 | 775.7 | 0.8473
313.15 K, m1 = 0.015 | 776 | 0.8496
